According to patent US6284879A, “Transport associated protein splice variants” (The General Hospital Corporation, priority 1998, dated 2001):
Entries after “also recorded” stand apart in the source; their conditions may differ.

Key:
[1] = target: T1, TAP1/TAP2iso heterodimer (Homo sapiens, UniProt Q03518+Q03519); assay: competition with transport of 125I-Peptide RRYQNSTEL in TAP1/TAP2iso transfectants; format: cell-based; conditions: TAP1/TAP2iso transfectants
T1 construct: expressed in transfected cells
T1 sequence (Q03519 1-653 isoform Q03519-2 L359K/V379I): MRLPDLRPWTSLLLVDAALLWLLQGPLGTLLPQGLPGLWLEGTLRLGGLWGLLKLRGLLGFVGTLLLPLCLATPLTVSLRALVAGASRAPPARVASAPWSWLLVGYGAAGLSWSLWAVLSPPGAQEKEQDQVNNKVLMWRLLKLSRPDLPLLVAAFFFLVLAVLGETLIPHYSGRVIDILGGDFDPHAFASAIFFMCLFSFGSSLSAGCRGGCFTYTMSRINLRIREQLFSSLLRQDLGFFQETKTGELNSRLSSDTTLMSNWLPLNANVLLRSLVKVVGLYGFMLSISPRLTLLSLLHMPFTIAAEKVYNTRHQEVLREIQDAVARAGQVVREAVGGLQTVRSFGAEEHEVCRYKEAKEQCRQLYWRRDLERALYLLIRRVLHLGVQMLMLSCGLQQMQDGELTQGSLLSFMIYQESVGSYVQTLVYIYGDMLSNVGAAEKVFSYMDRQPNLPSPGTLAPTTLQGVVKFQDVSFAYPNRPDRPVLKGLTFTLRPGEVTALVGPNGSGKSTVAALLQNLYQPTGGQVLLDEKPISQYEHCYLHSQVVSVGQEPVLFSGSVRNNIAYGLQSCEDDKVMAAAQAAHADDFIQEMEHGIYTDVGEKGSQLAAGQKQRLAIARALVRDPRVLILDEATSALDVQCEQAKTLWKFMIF
T1 sequence (Q03518 1-748): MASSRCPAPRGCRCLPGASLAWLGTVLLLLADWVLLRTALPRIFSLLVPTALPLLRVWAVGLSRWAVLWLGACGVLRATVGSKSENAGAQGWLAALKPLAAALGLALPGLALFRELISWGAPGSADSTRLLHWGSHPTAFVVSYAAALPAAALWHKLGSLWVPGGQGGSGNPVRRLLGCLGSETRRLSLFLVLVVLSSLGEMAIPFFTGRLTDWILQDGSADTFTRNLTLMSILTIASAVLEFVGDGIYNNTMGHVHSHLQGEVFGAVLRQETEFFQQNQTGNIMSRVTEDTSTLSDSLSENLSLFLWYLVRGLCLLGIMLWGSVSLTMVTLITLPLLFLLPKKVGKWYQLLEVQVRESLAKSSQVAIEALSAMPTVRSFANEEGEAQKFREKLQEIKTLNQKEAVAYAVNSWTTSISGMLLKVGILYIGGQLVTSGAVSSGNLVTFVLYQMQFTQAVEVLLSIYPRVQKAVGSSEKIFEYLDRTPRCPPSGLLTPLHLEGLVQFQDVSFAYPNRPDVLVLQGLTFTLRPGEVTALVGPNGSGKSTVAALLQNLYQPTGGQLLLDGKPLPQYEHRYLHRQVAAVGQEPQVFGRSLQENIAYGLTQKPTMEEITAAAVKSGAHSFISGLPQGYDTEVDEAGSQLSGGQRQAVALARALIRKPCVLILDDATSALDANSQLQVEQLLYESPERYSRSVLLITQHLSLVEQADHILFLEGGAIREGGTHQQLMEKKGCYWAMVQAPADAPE
Method: (§1) Glycosylated ^125 I Peptide […] (SEQ ID NO: 6), Peptide […] (SEQ ID NO: 7), or Peptide […] (SEQ ID NO: 8) was recovered and measured. The peptide translocation assay was performed essentially as previously described (Neefjes et al., Science, 261:769 (1993); and Momburg et al., J. Exp. Med., 179:1613 (1994)). Briefly, 2.5-5.0×10^6 T2 cell (transfected or untransfected) were washed once with incubation buffer (130 mM KCl, 10 mM NaCl, 1 mM CaC2, 2 mM EDTA, 2 mM MgCl2, 5 mM Hepes, pH 7.3) and permeabilized for 10 minutes at 37° C. with streptolysin O (2 IU/ml) (Wellcome, Beckenham, UK) in 50 μl of incubation buffer. After further addition of 10 μl of 100 mM adenosine triphosphate, 10 μl of ^125 I-labeled peptide (~15 pM), and 30 μl of incubation buffer, cells were incubated for an additional 10 minutes at 37° C. Transport was terminated by the addition of 1 ml of 1% NP-40 detergent, after which nuclei were removed by centrifugation and glycosylated peptides were recovered using concanavalin A-Sepharose (Sigma, St. Louis, Mo.) and quantitated with a gamma counter (LKB-Wallac).
Differential peptide selectivity of the TAP1/TAP2 and TAP1/TAP2iso heterodimers was further investigated by competition experiments with ^125 I-labeled Peptide […] (SEQ ID NO: 6) and various unlabeled peptides: Peptide […] (SEQ ID NO: 6); Peptide […] (SEQ ID NO: 7); Peptide […] (SEQ ID NO: 8); Peptide […] (SEQ ID NO: 9), the S1-24 fragment of human adrenocorticotropic hormone); and Peptide […] (SEQ ID NO: 10), residues 22 to 30 (human insulin B chain). The iodinated 9-mer Peptide […] was translocated in the presence of different concentrations of unlabeled competition peptides. The glycosylated peptides were recovered by Con A-Sepharose and quantitated. […] (self); (6B) competition of ^125 I-Peptide […] with Peptide […]; (6C) competition of ^125 I-Peptide […] with Peptide […]; and (6D) competition of ^125 I-Peptide […] with Peptide […]; and (6E) competition of ^125 I-Peptide […] with Peptide […].

[2] = system: T1 cells (naturally co-express both TAP2 and TAP2iso); conditions: in words
[3] = system: TAP1/TAP2iso heterodimer (compared with TAP1/TAP2); assay: translocation of 125I-labeled peptides into the ER of permeabilized T2 transfectants; format: cell-based, human; conditions: 125I-labeled glycosylated peptide recovered from streptolysin O permeabilized T2 transfectants; comparison in words
Method: 10 mM stock solutions of peptides were prepared in dimethyl sulfoxide. Peptides (25 μg) were directly iodinated at unique tyrosine residues with the use of chloramine T (Sigma, St. Louis, Mo.), and free iodine was removed by gel filtration using Sephadex G 10 (Pharmacia) column chromatography.
as §1

[4] = target: T2, TAP1/TAP2 heterodimer (Homo sapiens, UniProt Q03518+Q03519); assay: competition with transport of 125I-Peptide RRYQNSTEL in TAP1/TAP2 transfectants; format: cell-based
T2 sequence (Q03518 1-748): T1 sequence (Q03518 1-748)
T2 sequence (Q03519 1-686 L359K/V379I): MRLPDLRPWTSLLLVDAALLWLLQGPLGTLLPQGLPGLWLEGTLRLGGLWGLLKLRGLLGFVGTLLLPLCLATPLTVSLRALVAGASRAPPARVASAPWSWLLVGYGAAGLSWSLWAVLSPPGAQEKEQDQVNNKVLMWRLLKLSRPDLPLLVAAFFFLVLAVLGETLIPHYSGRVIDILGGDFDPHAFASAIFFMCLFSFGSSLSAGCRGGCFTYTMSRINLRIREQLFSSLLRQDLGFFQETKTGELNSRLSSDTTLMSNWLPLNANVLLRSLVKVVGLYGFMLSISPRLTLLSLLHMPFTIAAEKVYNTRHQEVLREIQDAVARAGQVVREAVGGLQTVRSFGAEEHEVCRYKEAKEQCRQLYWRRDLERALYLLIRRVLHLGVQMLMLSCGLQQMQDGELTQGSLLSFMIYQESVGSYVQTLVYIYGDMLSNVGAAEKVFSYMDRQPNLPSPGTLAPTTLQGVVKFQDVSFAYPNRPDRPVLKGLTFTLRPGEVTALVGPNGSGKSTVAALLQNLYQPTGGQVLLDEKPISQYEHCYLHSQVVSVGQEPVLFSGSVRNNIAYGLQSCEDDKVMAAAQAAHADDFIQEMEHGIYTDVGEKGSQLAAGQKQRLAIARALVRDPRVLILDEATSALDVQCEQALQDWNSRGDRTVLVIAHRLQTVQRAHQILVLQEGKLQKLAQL
Method: as §1
Differential peptide selectivity of the TAP1/TAP2 and TAP1/TAP2iso heterodimers was further investigated by competition experiments with ^125 I-labeled Peptide […] (SEQ ID NO: 6) and various unlabeled peptides: Peptide […] […] The glycosylated peptides were recovered by Con A-Sepharose and quantitated. […]

[5] = unlabeled peptide against transport of 125I-Peptide RRYQNSTEL, read-out: median inhibitory concentration (IC50)

## RRYQNSTEL [Peptide RRYQNSTEL]
[1]; [5]
  IC50: ~150 nM
[2]
  transportation of test peptides (relative IC50): equal efficiency
[3]
  amount of translocated peptide, TAP1/TAP2iso compared with TAP1/TAP2: transported to similar extents; also recorded: translocated with equal efficiency
[4]; [5]
  IC50: ~150 nM

## SYSMEHGRWGKPVGKKRRPVKVYP
[1]; in words
  inhibition of transport of Peptide RRYQNSTEL: did not inhibit
[4]; in words
  inhibition of transport of Peptide RRYQNSTEL: did not inhibit
